Active and inactive are the calls of the source. No cut-off for these calls is given here.
How the values were obtained:
[1] = Growth inhibition of human OVCAR5 cells after 48 hrs by sulforhodamine B colorimetric assay; assay type: functional; settings: OVCAR-5, 48 h
[2] = Growth inhibition of human LOXIMVI cells after 48 hrs by sulforhodamine B colorimetric assay; assay type: functional; settings: LOX IMVI
NCI-H226 = test: Growth inhibition of human NCI-H226 cells after 48 hrs by sulforhodamine B colorimetric assay; assay type: functional; settings: NCI-H226, 48 h
[3] = Growth inhibition of human HCC2998 cells after 48 hrs by sulforhodamine B colorimetric assay; assay type: functional; settings: HCC 2998, 48 h
[4] = Growth inhibition of human MKN28 cells after 48 hrs by sulforhodamine B colorimetric assay; assay type: functional; settings: MKN-28, 48 h
[5] = Growth inhibition of human HCT15 cells after 48 hrs by sulforhodamine B colorimetric assay; assay type: functional; settings: HCT-15, 48 h
NCI-H23 [6] = test: Antitumor activity against human NCI-H23 cells xenografted in mouse assessed as inhibition of tumor growth on day 16 at 100 mg/kg, ip on day 0 and day 6; assay type: functional, organism-based; design: dose 100 mg/kg
[7] = Growth inhibition of human MKN45 cells after 48 hrs by sulforhodamine B colorimetric assay; assay type: functional; settings: MKN-45, 48 h
ACHN = test: Growth inhibition of human ACHN cells after 48 hrs by sulforhodamine B colorimetric assay; assay type: functional
SK-OV-3 = test: Growth inhibition of human SKOV3 cells after 48 hrs by sulforhodamine B colorimetric assay; assay type: functional; settings: SK-OV-3, 48 h
[8] = Growth inhibition of human HCT116 cells after 48 hrs by sulforhodamine B colorimetric assay; assay type: functional; settings: HCT-116, 48 h
NCI-H522 = test: Growth inhibition of human NCI-H522 cells after 48 hrs by sulforhodamine B colorimetric assay; assay type: functional; settings: NCI-H522, 48 h
[9] = Growth inhibition of human OVCAR3 cells after 48 hrs by sulforhodamine B colorimetric assay; assay type: functional; settings: OVCAR-3, 48 h
NCI-H23 [10] = test: Antitumor activity against human NCI-H23 cells xenografted in mouse assessed as average tumor size on day 16 at 100 mg/kg, ip on day 0 and day 6 relative to control mouse; assay type: functional; settings: route intraperitoneal
A549 = test: Growth inhibition of human A549 cells after 48 hrs by sulforhodamine B colorimetric assay; assay type: functional; settings: A549, 48 h
[11] = Growth inhibition of human HBC5 cells after 48 hrs by sulforhodamine B colorimetric assay; assay type: functional; settings: HBC5, 48 h
MDA-MB-231 = test: Growth inhibition of human MDA-MB-231 cells after 48 hrs by sulforhodamine B colorimetric assay; assay type: functional; settings: MDA-MB-231, 48 h
MCF7 = test: Growth inhibition of human MCF7 cells after 48 hrs by sulforhodamine B colorimetric assay; assay type: functional; settings: MCF7, 48 h
SF-268 = test: Growth inhibition of human SF268 cells after 48 hrs by sulforhodamine B colorimetric assay; assay type: functional; settings: SF-268, 48 h
[12] = Growth inhibition of human SF295 cells after 48 hrs by sulforhodamine B colorimetric assay; assay type: functional; settings: SF-295, 48 h
[13] = Growth inhibition of human PC3 cells after 48 hrs by sulforhodamine B colorimetric assay; assay type: functional; settings: PC-3, 48 h
[14] = Growth inhibition of human OVCAR4 cells after 48 hrs by sulforhodamine B colorimetric assay; assay type: functional; settings: OVCAR-4, 48 h
HT-29 = test: Growth inhibition of human HT-29 cells after 48 hrs by sulforhodamine B colorimetric assay; assay type: functional; settings: HT-29, 48 h
[15] = Growth inhibition of human RXF631L cells after 48 hrs by sulforhodamine B colorimetric assay; assay type: functional; settings: RXF 631, 48 h
SNB-75 = test: Growth inhibition of human SNB75 cells after 48 hrs by sulforhodamine B colorimetric assay; assay type: functional; settings: SNB-75, 48 h
[16] = Growth inhibition of human MKN1 cells after 48 hrs by sulforhodamine B colorimetric assay; assay type: functional; settings: MKN-1, 48 h
[17] = Growth inhibition of human BSY1 cells after 48 hrs by sulforhodamine B colorimetric assay; assay type: functional; settings: BSY-1, 48 h
U-251 = test: Growth inhibition of human U251 cells after 48 hrs by sulforhodamine B colorimetric assay; assay type: functional; settings: U-251, 48 h
NCI-H23 [18] = test: Growth inhibition of human NCI-H23 cells after 48 hrs by sulforhodamine B colorimetric assay; assay type: functional; settings: NCI-H23, 48 h
KM12 = test: Growth inhibition of human KM12 cells after 48 hrs by sulforhodamine B colorimetric assay; assay type: functional; settings: KM12, 48 h
[19] = Growth inhibition of human MKN7 cells after 48 hrs by sulforhodamine B colorimetric assay; assay type: functional; settings: MKN-7, 48 h
[20] = Growth inhibition of human HBC4 cells after 48 hrs by sulforhodamine B colorimetric assay; assay type: functional; settings: HBC4, 48 h
[21] = Growth inhibition of human SNB78 cells after 48 hrs by sulforhodamine B colorimetric assay; assay type: functional; settings: SNB-78, 48 h
St-4 = test: Growth inhibition of human St-4 cells after 48 hrs by sulforhodamine B colorimetric assay; assay type: functional; settings: St-4, 48 h
[22] = Growth inhibition of human SF539 cells after 48 hrs by sulforhodamine B colorimetric assay; assay type: functional; settings: SF-539, 48 h
[23] = Growth inhibition of human DMS114 cells after 48 hrs by sulforhodamine B colorimetric assay; assay type: functional; settings: DMS-114, 48 h
NCI-H460 = test: Growth inhibition of human NCI-H460 cells after 48 hrs by sulforhodamine B colorimetric assay; assay type: functional; settings: NCI-H460, 48 h
DU-145 = test: Growth inhibition of human DU145 cells after 48 hrs by sulforhodamine B colorimetric assay; assay type: functional; settings: DU-145, 48 h
[24] = Growth inhibition of human DMS273 cells after 48 hrs by sulforhodamine B colorimetric assay; assay type: functional; settings: DMS-273, 48 h
[25] = Growth inhibition of human MKN74 cells after 48 hrs by sulforhodamine B colorimetric assay; assay type: functional; settings: MKN-74, 48 h
[26] = Growth inhibition of human OVCAR8 cells after 48 hrs by sulforhodamine B colorimetric assay; assay type: functional; settings: OVCAR-8, 48 h
[27] = Toxicity in human NCI-H23 cells xenografted in mouse ip dosed on day 0 and day; assay type: organism-based; settings: in vivo

CCCCCCCCCCCC[C@@H](O)[C@H]1CC[C@H]([C@H](O)CCCCCCCCCCNC(=O)c2ccsc2)O1
GI50 [1]: 2.69 µM | GI50 [2]: 1.51 µM | GI50 (NCI-H226): 2.4 µM | GI50 [3]: 2.19 µM | GI50 [4]: 0.575 µM | GI50 [5]: 38 µM | inhibition (NCI-H23 [6]): Active | GI50 [7]: 3.72 µM | GI50 (ACHN): 3.89 µM | GI50 (SK-OV-3): > 100 µM | GI50 [8]: 1.29 µM | GI50 (NCI-H522): 1 µM | GI50 [9]: 1.7 µM | Activity (NCI-H23 [10]): 16% | GI50 (A549): > 100 µM | GI50 [11]: 2.09 µM | GI50 (MDA-MB-231): 4.47 µM | GI50 (MCF7): 2 µM | GI50 (SF-268): > 100 µM | GI50 [12]: 1 µM | GI50 [13]: 1.7 µM | GI50 [14]: 1.7 µM | GI50 (HT-29): 1.91 µM | GI50 [15]: > 100 µM | GI50 (SNB-75): 2.82 µM | GI50 [16]: 2.29 µM | GI50 [17]: 3.02 µM | GI50 (U-251): > 100 µM | GI50 (NCI-H23 [18]): 0.2 µM | GI50 (KM12): 3.02 µM | GI50 [19]: 0.17 µM | GI50 [20]: > 100 µM | GI50 [21]: > 100 µM | GI50 (St-4): 1.7 µM | GI50 [22]: > 100 µM | GI50 [23]: 0.17 µM | GI50 (NCI-H460): 4.9 µM | GI50 (DU-145): 2.19 µM | GI50 [24]: 2 µM | GI50 [25]: 1.51 µM | GI50 [26]: 1.91 µM

CCCCCCCCCCCC[C@@H](O)[C@H]1CC[C@H]([C@H](O)CCCCCCCCCCNC(=O)c2ccoc2)O1
GI50 [1]: > 100 µM | GI50 [2]: 21.9 µM | GI50 (NCI-H226): > 100 µM | GI50 [3]: 79.4 µM | GI50 [4]: 0.55 µM | GI50 [5]: > 100 µM | GI50 [7]: > 100 µM | GI50 (ACHN): > 100 µM | GI50 (SK-OV-3): > 100 µM | GI50 [8]: 3.47 µM | GI50 (NCI-H522): 10 µM | GI50 [9]: > 100 µM | GI50 (A549): > 100 µM | GI50 [11]: > 100 µM | GI50 (MDA-MB-231): > 100 µM | GI50 (MCF7): 26.9 µM | GI50 (SF-268): > 100 µM | GI50 [12]: > 100 µM | GI50 [13]: 52.5 µM | GI50 [14]: 74.1 µM | GI50 (HT-29): > 100 µM | GI50 [15]: > 100 µM | GI50 (SNB-75): > 100 µM | GI50 [16]: > 100 µM | GI50 [17]: 2.19 µM | GI50 (U-251): > 100 µM | GI50 (NCI-H23 [18]): 3.02 µM | GI50 (KM12): > 100 µM | GI50 [19]: 0.372 µM | GI50 [20]: > 100 µM | GI50 [21]: > 100 µM | GI50 (St-4): 97.7 µM | GI50 [22]: > 100 µM | GI50 [23]: 0.191 µM | GI50 (NCI-H460): > 100 µM | GI50 (DU-145): > 100 µM | GI50 [24]: > 100 µM | GI50 [25]: 21.9 µM | GI50 [26]: 66.1 µM

CCCCCCCCCCCC[C@@H](O)[C@H]1CC[C@H]([C@H](O)CCCCCCCCCCNC(=O)c2ccnn2C)O1
GI50 [1]: > 100 µM | GI50 [3]: > 100 µM | GI50 [5]: > 100 µM | GI50 (SK-OV-3): > 100 µM | MTD [27]: 5 mg/kg | GI50 (SF-268): > 100 µM | GI50 [12]: 10 µM | GI50 (HT-29): > 100 µM | GI50 [15]: > 100 µM | GI50 (SNB-75): 50.1 µM | GI50 (U-251): > 100 µM | GI50 (KM12): > 100 µM | GI50 [20]: > 100 µM | GI50 [21]: > 100 µM | GI50 (DU-145): > 100 µM
